The target of one experiment is T1, CDK12/CyclinK (Homo sapiens, UniProt Q9NYV4).
T1 construct: His-CDK12 (aa Q696-S1082); made in house; host or cells: Hi-5 insect cells (baculovirus co-infection with CycK and yeast CAK1)
The experiment is described as follows: CDK12/CycK high ATP kinase assay (TR-FRET). It is filed as biochemical. Particulars: 2 mM ATP (high ATP); median; read-out: CDK12/CyclinK, 2 mM ATP (high ATP), IC50 - [mol/l] (median). From the text: 2.2 CDK12/CycK high ATP Kinase Assay
In the context of the present invention, the term “IC50 CDK12 hATP” refers to the ICso values obtained according to the assay described in this section (2.2) herein below, i.e. the IC50 values for the inhibition of CDK12 at high ATP.
CDK12/CycK -inhibitory activity of compounds of the present invention at 2 millimol/L adenosine-tri-phosphate (ATP) was quantified employing the TR-FRET (TR-FRET=Time Resolved Fluorescence Energy Transfer) based CDK12/CycK activity inhibition assay as described in the following paragraphs.
A complex of human recombinant CDK12 and human recombinant CycK (both N-terminally His-tagged, expression and purification as described above) was used as enzyme. As substrate for the kinase reaction biotinylated peptide biotin-Ahx-KFELLPTPPLSPSRRSGL (C-terminus in amid form) was used which can be purchased e.g. form the company Biosyntan (Berlin-Buch, Germany).
For the assay 50 nanoL of a 100 fold concentrated solution of the test compound in DMSO was pipetted into either a black low volume 384 well microtiter plate or a black 1536 well microtiter plate (both Greiner Bio-One, Frickenhausen, Germany), 2 microL of a solution of CDK12/CycK in aqueous assay buffer [25 millimol/L HEPES pH 7.5, 20 millimol/L MgCl2, 5 millimol/L β-glycerophosphate, 2 millimol/L EGTA, 1.0 millimol/L dithiothreitol, 0.01% (v/v) Nonidet-P40 (Sigma), 0.01% (w/v) bovine serum albumin] were added and the mixture was incubated for 15 min at 22° C. to allow pre-binding of the test compounds to the enzyme before the start of the kinase reaction. Then the kinase reaction was started by the addition of 3 microL of a solution ATP (3.33 millimol/L=>final conc. in the 5 microL assay volume is 2 millimol/L) and substrate (1.67 micromol/L=>final conc. in the 5 microL assay volume is 1 micromol/L) in assay buffer and the resulting mixture was incubated for a reaction time of 60 min at 22° C. The concentration of CDK12/CycK was adjusted depending of the activity of the enzyme lot and was chosen appropriate to have the assay in the linear range, typical concentrations were about 0.75 nanomol/L. The reaction was stopped by the addition of 3 microL of a solution of TR-FRET detection reagents (125 nanomol/L streptavidine-XL665 [Cisbio Bioassays, Codolet, France] and 0.67 nanomol/L anti-Phospho-c-Myc (Ser 62) (E1J4K)-antibody from Cell Signalling [#13748] and 2 nanomol/L LANCE EU-W1024 labeled anti-rabbit IgG antibody [Perkin-Elmer, product no. 0083]) in an aqueous EDTA-solution (133 millimol/L EDTA, 0.27% (w/v) bovine serum albumin in 66.7 millimol/L HEPES pH 7.5).
The resulting mixture was incubated 1 h at 22° C. to allow the formation of complex between the phosphorylated biotinylated peptide and the detection reagents. Subsequently the amount of phosphorylated substrate was evaluated by measurement of the resonance energy transfer from the Eu-chelate to the streptavidine-XL. Therefore, the fluorescence emissions at 620 nm and 665 nm after excitation at 350 nm was measured in a TR-FRET reader, e.g. a Pherastar FS (BMG Labtechnologies, Offenburg, Germany) or a Viewlux (Perkin-Elmer). The ratio of the emissions at 665 nm and at […] was taken as the measure for the amount of phosphorylated substrate. The data were normalised (enzyme reaction without inhibitor=0% inhibition, all other assay components but no enzyme=100% inhibition).
In general terms: TR-FRET usually uses a lanthanide donor and a delayed reading to cut background.

For another experiment, the target named is T2, CDK12 (Homo sapiens, UniProt Q9NYV4).
T2 construct: endogenous in cells; host or cells: CAL-120 human breast cancer cells (DSMZ ACC 459)
The experiment in a line: CDK12 nuclear protein level: immunofluorescence/high content analysis in CAL-120 cells. The class given is cell-based. The procedure:
6. CDK12 Nuclear Protein Level: Immunofluorescence/High Content Analysis
In the context of the present invention, the term “DC50 CDK12” refers to the DC50 values obtained according to the assay described in this section (6) herein below, i.e. the DC50 values for the degradation of CDK12.:
(§1) CAL-120 human breast cancer cells (DSMZ ACC 459) are seeded in 1536-well microtiter plates (800 cells per well) containing 50 nanoL of compounds in Dose-Response. Control wells received DMSO or Reference Example 1. Plates are then incubated for 24 h at 37° C. in an humidified incubator and fixed with 4% PFA for 10 min. Then immunofluorescence (IF) against CDK12 (CellSignalling CDK12 Antibody #11973, rabbit, 1:100 dilution) is performed using standard IF protocols. Cells are then stained with Hoechst 33342 (Life Technologies, H-1399, 0.1 microg/mL) and imaged on an automated confocal microscopy system (e.g. Perkin Elmer Opera Phenix). Nuclear and cytoplasmic intensity as well as the nuclear/cytoplasmic intensity ratio is determined by automated image analysis using custom generated scripts (MetaXpress). Data is then transferred to Genedata Screener software, normalized to DMSO and control and DC50 values (degrading concentration to achieve 50% reduction of nuclear CDK12 staining intensity relative to controls) are reported.

In another experiment the target is T3, CYCLIN K (Homo sapiens, UniProt O75909).
T3 construct: endogenous in cells; host or cells: CAL-120 human breast cancer cells (DSMZ ACC 459)
The experiment in a line: CYCLIN K nuclear protein level: immunofluorescence/high content analysis in CAL-120 cells. It is filed as cell-based. Conditions: 24 h, nuclear CCNK staining intensity, median, read-out: CYCLIN K degradation IF, DC50- [mol/l] (median). The procedure:
7. CYCLIN K Nuclear Protein Level: Immunofluorescence/High Content Analysis
In the context of the present invention, the term “DC50 Cyclin K” refers to the DC50 values obtained according to the assay described in this section (7) herein below, i.e. the DC50 values for the degradation of Cyclin K.
as §1, with “CYCLIN K (ThermoFisher Scientific CCNK” for “CDK12 (CellSignalling CDK12”, “# PA5-85020,” for “#11973,”, “1:200” for “1:100”, “CCNK” for “CDK12”

T2 sequence (Q9NYV4 whole entry): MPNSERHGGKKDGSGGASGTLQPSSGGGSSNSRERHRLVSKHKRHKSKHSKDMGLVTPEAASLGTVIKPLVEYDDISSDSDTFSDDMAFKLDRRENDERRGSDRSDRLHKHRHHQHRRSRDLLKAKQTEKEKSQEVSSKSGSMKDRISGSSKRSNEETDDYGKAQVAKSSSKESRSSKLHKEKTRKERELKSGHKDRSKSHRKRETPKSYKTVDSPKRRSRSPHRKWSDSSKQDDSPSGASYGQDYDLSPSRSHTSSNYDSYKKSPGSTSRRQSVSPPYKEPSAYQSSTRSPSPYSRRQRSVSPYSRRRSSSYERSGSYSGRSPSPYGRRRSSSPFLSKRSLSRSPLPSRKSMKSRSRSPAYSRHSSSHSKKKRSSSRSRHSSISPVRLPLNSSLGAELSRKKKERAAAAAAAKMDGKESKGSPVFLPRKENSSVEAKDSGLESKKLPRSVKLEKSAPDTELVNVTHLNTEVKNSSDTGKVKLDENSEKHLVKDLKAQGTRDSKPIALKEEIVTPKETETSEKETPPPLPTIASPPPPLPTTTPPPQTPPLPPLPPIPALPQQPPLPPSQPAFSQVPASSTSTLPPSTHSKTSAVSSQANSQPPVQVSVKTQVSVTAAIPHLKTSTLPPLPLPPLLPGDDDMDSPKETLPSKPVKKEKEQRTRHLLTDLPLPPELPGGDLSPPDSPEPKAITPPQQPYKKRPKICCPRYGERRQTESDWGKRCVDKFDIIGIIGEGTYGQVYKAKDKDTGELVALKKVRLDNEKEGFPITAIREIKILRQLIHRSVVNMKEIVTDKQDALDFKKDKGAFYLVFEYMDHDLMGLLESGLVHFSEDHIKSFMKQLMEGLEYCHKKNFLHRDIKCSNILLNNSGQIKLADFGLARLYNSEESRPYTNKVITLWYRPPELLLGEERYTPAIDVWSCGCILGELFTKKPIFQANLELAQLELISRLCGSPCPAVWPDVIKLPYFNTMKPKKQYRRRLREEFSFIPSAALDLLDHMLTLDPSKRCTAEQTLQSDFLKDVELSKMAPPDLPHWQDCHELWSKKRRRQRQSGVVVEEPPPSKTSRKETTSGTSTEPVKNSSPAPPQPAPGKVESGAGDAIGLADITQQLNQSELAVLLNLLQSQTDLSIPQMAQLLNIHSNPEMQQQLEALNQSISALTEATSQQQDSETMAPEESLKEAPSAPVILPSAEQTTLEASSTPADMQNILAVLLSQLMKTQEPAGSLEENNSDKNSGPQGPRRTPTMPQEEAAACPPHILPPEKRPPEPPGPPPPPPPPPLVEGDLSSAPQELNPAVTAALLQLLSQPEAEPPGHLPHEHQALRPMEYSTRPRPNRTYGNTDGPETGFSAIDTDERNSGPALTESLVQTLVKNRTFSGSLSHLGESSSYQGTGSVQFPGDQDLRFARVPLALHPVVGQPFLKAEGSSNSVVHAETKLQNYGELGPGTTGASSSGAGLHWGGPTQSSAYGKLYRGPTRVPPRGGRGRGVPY
T2 sequence (O75909 whole entry partner): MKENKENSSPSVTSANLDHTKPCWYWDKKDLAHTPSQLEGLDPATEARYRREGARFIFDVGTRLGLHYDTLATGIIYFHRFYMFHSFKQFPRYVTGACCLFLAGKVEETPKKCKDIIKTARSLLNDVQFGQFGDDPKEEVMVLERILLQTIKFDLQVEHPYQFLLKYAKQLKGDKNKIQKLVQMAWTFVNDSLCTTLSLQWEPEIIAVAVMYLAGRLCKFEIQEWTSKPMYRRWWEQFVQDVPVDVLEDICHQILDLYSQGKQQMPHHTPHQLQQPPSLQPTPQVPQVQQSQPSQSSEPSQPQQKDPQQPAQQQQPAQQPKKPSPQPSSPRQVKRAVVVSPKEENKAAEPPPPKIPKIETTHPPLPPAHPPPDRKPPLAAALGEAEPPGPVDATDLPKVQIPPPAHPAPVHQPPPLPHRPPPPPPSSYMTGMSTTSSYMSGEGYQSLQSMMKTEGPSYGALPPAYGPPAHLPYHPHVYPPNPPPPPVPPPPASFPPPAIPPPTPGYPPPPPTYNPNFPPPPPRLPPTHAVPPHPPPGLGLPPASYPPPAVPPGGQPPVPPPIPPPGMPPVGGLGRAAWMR
T1 sequence (Q9NYV4 with tags, fused parts or gaps): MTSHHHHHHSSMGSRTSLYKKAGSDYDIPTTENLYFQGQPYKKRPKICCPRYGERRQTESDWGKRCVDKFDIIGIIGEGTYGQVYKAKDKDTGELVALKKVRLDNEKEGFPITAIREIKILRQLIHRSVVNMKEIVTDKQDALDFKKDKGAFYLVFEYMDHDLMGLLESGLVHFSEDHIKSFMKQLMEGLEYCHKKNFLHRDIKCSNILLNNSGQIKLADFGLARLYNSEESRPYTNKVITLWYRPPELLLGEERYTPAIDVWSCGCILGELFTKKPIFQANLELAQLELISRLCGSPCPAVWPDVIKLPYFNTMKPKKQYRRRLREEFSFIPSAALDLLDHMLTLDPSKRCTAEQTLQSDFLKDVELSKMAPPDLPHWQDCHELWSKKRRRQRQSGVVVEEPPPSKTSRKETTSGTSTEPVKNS
T1 sequence (O75909 with tags, fused parts or gaps partner limits assumed): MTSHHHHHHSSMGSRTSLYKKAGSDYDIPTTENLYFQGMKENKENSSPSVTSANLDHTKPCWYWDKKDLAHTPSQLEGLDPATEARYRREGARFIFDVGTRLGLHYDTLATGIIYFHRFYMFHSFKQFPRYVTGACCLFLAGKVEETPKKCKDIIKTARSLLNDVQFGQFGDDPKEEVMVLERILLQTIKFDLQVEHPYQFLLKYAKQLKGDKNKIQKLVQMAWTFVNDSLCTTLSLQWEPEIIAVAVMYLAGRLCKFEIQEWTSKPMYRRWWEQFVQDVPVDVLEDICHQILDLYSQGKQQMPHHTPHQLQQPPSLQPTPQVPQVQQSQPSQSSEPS
T3 sequence (O75909 whole entry): as the sequence (O75909 whole entry partner) above
T3 sequence (Q9NYV4 whole entry partner): as the sequence (Q9NYV4 whole entry) above

Take `CN1CCC(n2nc(NCc3nc4c(OC(F)(F)F)cccc4[nH]3)c3ncc(C4CC4)nc32)CC1` [Example 5, 6-cyclopropyl-1-(1-methylpiperidin-4-yl)-N-{[4-(trifluoromethoxy)-1H-benzimidazol-2-yl]methyl}-1H-pyrazolo[3,4-b]pyrazin-3-amine]: the IC50 on CDK12/CyclinK is above 20000 nM. For the same compound, the DC50 on CDK12 (CAL-120 cells, 24 h, nuclear CDK12 staining intensity, median, read-out: CDK12 degradation IF DC50 - [mol/l] (median)) was 83.4 nM; on CYCLIN K, 3.46 nM. In addition, the “(IC50 CDK12 high ATP) to (Degradation DC50 CDK12) ratio” value at CDK12 (ratio of IC50 CDK12 hATP (2 mM ATP) to DC50 CDK12 (IF, CAL-120)) is listed as above 239.

These data come from patent US20230192700A1, “PYRAZOLOPYRAZINES ACTING ON CANCERS VIA INHIBITION OF CDK12” (Bayer Aktiengesellschaft, priority 2020, published 2023).
